Patent US20220259302A1, “METHODS AND COMPOSITIONS FOR THE IMPROVEMENT OF LYSOSOMAL FUNCTION AND TREATMENT OF NEURODEGENERATIVE DISEASE” (VANDERBILT UNIVERSITY, priority 2017, published 2022)
Entries after “also recorded” stand apart in the source; their conditions may differ.

Assays:
[1] = tested on: p62-positive aggregates in hippocampus; test: p62-positive aggregates in hippocampus of aging mice after long-term treatment in drinking water; format: in vivo, mouse
Method: Female C57BL6 mice received apocynin (50 mg/kg) or C3 (1 mg/kg/day) in their water from 12-17 mos of age, then perfused. Fixed brain were sectioned, and immunostained for p62. Confocal images were analyzed for 6 hippocampi/three sections per mouse, 4 mice per group. To quantify the p62-containing aggregates, aggregates were individually circled in the depicted region by a blinded investigator, and aggregate areas measured using ImageJ. Areas covered by aggregates, and number of clusters, are shown. Mean±SEM, *p<0.05, ***p<0.001, Mann-Whitney Rank Sum test. Animal studies were approved by the Animal Care Program at the University of California, San Diego, and Vanderbilt University Medical Center and are in accordance with the PHS Guide for the Care and Use of Laboratory Animals, USDA Regulations, and the AVMA Panel on Euthanasia. Young (3 to 5 month) and old (17 to 27 month) C57BL/6 mice, Tam-Thy1-YFP-Crc, tdTomato or 24 month old GFAP/GFP transgenic mice (JAX, 010835) were used for experiments. Lines which have the Tam-Thy1-YFP-Cre express both the Cre recombinase and YFP under control of the Thy1 promoter, which drives expression in a majority of hippocampal and cortical excitatory neurons, but not inhibitory neurons. Tam-Thy1-YFP-Cre:Stat3flox/flox (TF) mice have been generated, and have also been crossed with the Rosa26-tdTomato reporter mouse line to produce Tam-Thy1-YFP-Cre:Stat3flox/flox:tdTom (TFTD) mice. These reporter mice will express tdTom fluorescence in response to tamoxifen. […] The sections were kept in 30% sucrose, 30% ethylene glycol, and 1% PVP-40 at −20° C. until they were ready to be processed for immunostaining. […] With HRP-conjugated secondary antibodies, fluorescence was developed with fluorescein or cyanine 3 TSA amplification systems. […] Images were then analyzed and processed using Metamorph or Fiji software. To quantify the clusters of p62-containing aggregates, images were taken for 6 hippocampal regions from three sections per mouse, with 4 mice for each group. […]

[2] = tested on: lamp1-positive lysosomes in neurons; test: intracellular lysosome size in neurons of aged mice (lamp1 and CatD immunostaining); format: in vivo, mouse; settings: aged mice treated with apocynin compared to water
Text: Brain sections from 5 month and 20 month old female mice were immunostained with antibodies against lamp1 and parvalbumin (PV), chosen to allow lysosomes in individual neurons to be analyzed. In old versus young animals, lamp1-labeled lysosomes are larger in both PV neurons as well as surrounding pyramidal neurons. Lysosomes in PV neurons were quantified in 1 μm thick optical sections with ImageJ using Analyze Particles function; n=8 young, n=7 old. *p<0.001, Mann-Whitney Rank Sum test.
Mice were treated with apocynin in drinking water (initial dose 5 mg/kg and then ramping up to 100 mg/kg) beginning at 12 months old for 5 months. […]
An antigen retrieval method was performed on the sections for most antigens by heating in 10 mM citrate buffer (pH 6.0) for 10 minutes at 90° C. […] With HRP-conjugated secondary antibodies, fluorescence was developed with fluorescein or cyanine 3 TSA amplification systems. […]
Images were captured using Zeiss LSM 510 or LSM 810 multiphoton laser confocal microscopes. […] Images were then analyzed and processed using Metamorph or Fiji software. To quantify the clusters of p62-containing aggregates, images were taken for 6 hippocampal regions from three sections per mouse, with 4 mice for each group. Hippocampal regions were divided into different subregions, and p62 clusters were counted. […]

lysosomal v-ATPase = lysosomal v-ATPase (Homo sapiens, UniProt P27449); settings: direct inhibition of lysosome acidification; cited from earlier work
Nox2, Nox4 and p22phox = test: Nox induction in brain of mice injected with IL-6 (qRT-PCR, Western blot, immunostaining); format: in vivo, mouse; settings: 4 month and 24 month-old C57Bl/6 mice, IL-6 5 μg/kg on two consecutive days
Method: These are the first data showing that inhibiting Nox activity can improve lysosome function in brain in vivo. […] Based on the observation herein that IL-6 is responsible for Nox2 induction in aging brain, and thus here, it is determined whether IL-6 mediates lysosome dysfunction. […] have a targeted deletion of Stat3 in neurons, and pharmacological inhibition of Nox-derived superoxide production can be used to test each of these possibilities. […] This increase occurred not only in microglia, but cortical and hippocampal neurons, and in synaptosomes. To confirm anti-Nox2 Ab specificity, slices and tissue from gp91phox−/− (Nox2−/−) mice were always included as controls.

mouse cortical cultures = test: lysosome degradation of proteins in mouse cortical cultures exposed to IL-6; format: cell-based
Method: Also, IL-6 can induce expression of inflammatory mediators, including TNFα, IL-6, IL-1β, Nox2 and Nox4, through both canonical pTyr-Stat3 transcription, and through noncanonical Stat3 NFκB transcription. Here, primary mouse cultures can be prepared on coverslip dishes as described and treated with IL-6 (10 ng/ml and 100 ng/ml) or a vehicle controls (media), daily for 4 days. Bafilomycin (100 nM) can be included in some dishes as a positive control for direct v-ATPase inhibition. Cultures can be fixed with 4% paraformaldehyde (PFA), and immunostained. Based on the data, accumulation of large lamp1 and p62-positive lysosomes in IL-6 and BAF treated cells can be observed. To then assess the role of redox effects on the v-ATPase, cultures can be co-treated with one of three antioxidants, TEMPOL (general radical scavenging), the C3 compound (catalytic superoxide dismutase, to reduce Nox-derived superoxide, regardless of isoform(s) which are contributing), and N-acetyl cysteine (to increase glutathione levels). When the v-ATPase is inhibited through its redox site, antioxidant treatment can prevent accumulation of undigested contents (p62, lamp1), and prevent enlargement of lysosomes. […]

lysosomal v-ATPase, sequence (P27449 whole entry): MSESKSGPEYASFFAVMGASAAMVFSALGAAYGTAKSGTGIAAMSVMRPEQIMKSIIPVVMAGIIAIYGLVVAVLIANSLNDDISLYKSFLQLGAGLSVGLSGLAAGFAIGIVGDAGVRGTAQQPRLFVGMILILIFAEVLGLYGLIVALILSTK
lysosomal v-ATPase, sequence (P38606 whole entry partner): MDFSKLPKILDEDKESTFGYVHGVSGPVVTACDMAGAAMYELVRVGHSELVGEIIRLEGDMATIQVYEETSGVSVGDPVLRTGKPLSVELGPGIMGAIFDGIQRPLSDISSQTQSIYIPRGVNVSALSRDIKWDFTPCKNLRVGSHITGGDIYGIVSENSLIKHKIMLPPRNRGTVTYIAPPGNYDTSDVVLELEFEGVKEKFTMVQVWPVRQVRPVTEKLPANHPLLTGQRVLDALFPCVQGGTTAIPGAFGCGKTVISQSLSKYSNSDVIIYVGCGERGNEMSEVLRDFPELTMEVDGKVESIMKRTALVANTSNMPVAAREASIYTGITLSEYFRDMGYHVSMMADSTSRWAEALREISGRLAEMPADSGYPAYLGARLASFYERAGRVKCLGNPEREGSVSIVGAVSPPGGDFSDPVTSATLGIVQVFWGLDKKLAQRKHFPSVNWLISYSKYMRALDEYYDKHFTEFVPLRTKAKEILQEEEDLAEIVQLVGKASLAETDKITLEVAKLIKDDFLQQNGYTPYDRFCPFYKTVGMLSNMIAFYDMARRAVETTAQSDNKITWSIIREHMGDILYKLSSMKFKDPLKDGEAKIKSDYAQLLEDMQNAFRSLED

For COc1cc(C(C)=O)ccc1O [apocynin], which cargo clearance ([1]; apocynin 100 mg/kg/day, as in FIG. 5) is on record?
The cargo clearance was “improved cargo clearance”.

What about the “accumulation of p62 aggregates (number and size of p62-positive aggregates) in hippocampus” value ([1]; female C57BL6 mice, in drinking water from 12-17 mos of age, apocynin 50 mg/kg/day, C3 1 mg/kg/day) of the same compound?
Its value is “reduction of both the number, and size of p62-positive aggregates; also recorded: reduces hippocampal aggregates; also recorded: lessons the accumulation of p62 aggregates”.

And the “undegraded lysosome material throughout brain” value ([1]; mice treated with apocynin (FIG. 5))?
Its value is “robust and highly significant reduction in undegraded lysosome material throughout brain”.

What about the “size of lysosomes in neurons (lamp1 and CatD immunostaining)” value [2] of the same compound?
The value was “significant normalization (reduction) of intracellular lysosome size; also recorded: significantly reduced the size of lysosomes”.

Which lysosome size (lysosomal v-ATPase) does the source give for CO/C1=C\C(C)=C\[C@@H](C)[C@@H](O)[C@@H](C)C/C(C)=C/C=C/[C@H](OC)[C@@H]([C@@H](C)[C@@H](O)[C@H](C)[C@@]2(O)C[C@@H](O)[C@H](C)[C@@H](C(C)C)O2)OC1=O [bafilomycin] here?
The lysosome size was “rapidly increases lysosome size within hours”.

For “IL-6: inflammatory cytokine interleukin-6”, which “induction of Nox2, Nox4 and p22phox in brain” value (Nox2, Nox4 and p22phox) is on record?
The value was “induction of Nox2, Nox4 and p22phox”.

And the “lysosome degradation of proteins, including p62” value (mouse cortical cultures)?
Its value is “impairs lysosome degradation of proteins”.
